In US9499493B2, “2,4-pyrimidinediamine compounds and their uses” (Rigel Pharmaceuticals, Inc., priority 2002, dated 2016):

Experiments:
[1] = tested on: cultured human mast cells (CHMC); test: CHMC low cell density IgE activation: tryptase assay; format: cell-based; details: anti-IgE
How it was run: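 Read-out: tryptase released into supernatant, measured by substrate turnover over 30 min at RT. Low-density CHMC (1000-1500 cells/well, per donor degranulation activity) in MT buffer, 1 hr at 37° C, then anti-IgE challenge 30 min at 37° C.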

[2] = tested on: cultured human mast cells (CHMC); test: CHMC low cell density ionomycin activation: tryptase assay; format: cell-based

SMILES: CC(C)NC(=O)COc1ccc(Nc2ncc(C#N)c(Nc3ccc(OCC(=O)NC(C)C)cc3)n2)cc1 [R925861, N2,N4-Bis[4-(N-isopropylamino)carbonylmethyleneoxyphenyl]-5-cyano-2,4-pyrimidinediamine]
- IC50 [1]: > 10 µM
- IC50 [2]: > 10 µM

SMILES: CCOC(=O)COc1ccc(Nc2ncc(C(F)(F)F)c(Nc3ccc(OCC(=O)OCC)cc3)n2)cc1 [R925862, N2,N4-Bis[4-(ethoxycarbonylmethyleneoxy)phenyl]-5-trifluoromethyl-2,4-pyrimidinediamine]
- IC50 [1]: 0.7 µM
- IC50 [2]: > 10 µM

SMILES: COC(=O)COc1cccc(Nc2ncc(F)c(Nc3cccc(OCC(=O)OC)c3)n2)c1 [R926255, N2,N4-Bis[(3-methoxycarbonylmethyleneoxy)phenyl]-5-fluoro-2,4-pyrimidinediamine]
- IC50 [1]: 1.4 µM
- IC50 [2]: 4.5 µM

SMILES: CCOC(=O)c1cnc(Nc2ccc3cn[nH]c3c2)nc1Nc1ccc2cn[nH]c2c1 [R926320, N2,N4-Bis(3-indazol-6-yl)-5-ethoxycarbonyl-2,4-pyrimidinediamine]
- IC50 [1]: > 10 µM
- IC50 [2]: > 10 µM

SMILES: CCOC(=O)c1cnc(Nc2cccc3cn[nH]c23)nc1Nc1cccc2cn[nH]c12 [R926321, N2,N4-Bis(3-indazol-7-yl)-5-ethoxycarbonyl-2,4-pyrimidinediamine]
- IC50 [1]: > 10 µM
- IC50 [2]: > 10 µM

SMILES: CCOC(=O)c1cnc(Nc2ccc3c(c2)NC(=O)CO3)nc1Nc1ccc2c(c1)NC(=O)CO2 [R926325, N2,N4-Bis[6-(1,4-benzoxazine-3-onyl)]-5-ethoxycarbonyl-2,4-pyrimidinediamine]
- IC50 [1]: > 10 µM
- IC50 [2]: > 10 µM

SMILES: Cc1ccc(Nc2ncc(F)c(Nc3ccc(C)c(O)c3)n2)cc1O [R926341, N2,N4-Bis(-3-hydroxy-4-methylphenyl)-5-fluoro-2,4-pyrimidinediaminediamine]
- IC50 [1]: 0.875 µM
- IC50 [2]: > 10 µM

SMILES: COCCOc1ccc(Nc2ncc(F)c(Nc3ccc(OCCOC)cc3)n2)cc1 [R926342, N2,N4-Bis[4-(2-methoxyethyleneoxy)phenyl]-5-fluoro-2,4-pyrimidinediamine]
- IC50 [1]: 10 µM
- IC50 [2]: > 10 µM

SMILES: COc1ccc(Nc2ncc(F)c(Nc3ccc(OC)c(-c4ccccc4)c3)n2)cc1-c1ccccc1 [R926399, N2,N4-Bis[(4-methoxy-3-phenyl)phenyl]-5-fluoro-2,4-pyrimidinediamine]
- IC50 [1]: > 10 µM
- IC50 [2]: > 10 µM

SMILES: COc1ccc(-c2ccccc2)cc1Nc1ncc(F)c(Nc2cc(-c3ccccc3)ccc2OC)n1 [R926400, N2,N4-Bis[(2-methoxy-5-phenyl)phenyl]-5-fluoro-2,4-pyrimidinediamine]
- IC50 [1]: > 10 µM
- IC50 [2]: > 10 µM

SMILES: COc1cc(-c2ccccc2)c(C)cc1Nc1ncc(F)c(Nc2cc(C)c(-c3ccccc3)cc2OC)n1 [R926401, N2,N4-Bis[(2-methoxy-5-methyl-4-phenyl)phenyl]-5-fluoro-2,4-pyrimidinediamine]
- IC50 [1]: > 10 µM
- IC50 [2]: > 10 µM

SMILES: Cc1ccc(-c2ccccc2)cc1Nc1ncc(F)c(Nc2cc(-c3ccccc3)ccc2C)n1 [R926402, N2,N4-Bis[(2-methyl-5-phenyl)phenyl]-5-fluoro-2,4-pyrimidinediamine]
- IC50 [1]: > 10 µM
- IC50 [2]: > 10 µM

SMILES: Fc1cnc(Nc2ccc3c(c2)OCCO3)nc1NNc1ccc2c(c1)OCO2 [R926406, N2-(3,4-Ethylenedioxyphenyl)-N4-(3,4-methylenedioxyphenylhydrazinyl)-5-fluoro-2-pyrimidineamine]
- IC50 [1]: > 10 µM
- IC50 [2]: > 10 µM

SMILES: CSc1nc(Nc2ccc3c(c2)OCCO3)nc(Nc2ccc3c(c2)OCCO3)c1Cl [R926475, N2,N4-Bis(3,4-ethyelenedioxyphenyl)-5-chloro-6-thiomethyl-2,4-pyrimidinediamine]
- IC50 [1]: 2.15 µM
- IC50 [2]: > 10 µM

SMILES: N#CCOc1ccc(Nc2ncc(F)c(Nc3ccc4c(c3)OCCO4)n2)cc1 [R926480, N2-(4-Cyanomethyleneoxyphenyl)-N4-(3,4-ethylenedioxyphenyl)-5-fluoro-2,4-pyrimidinediamine]
- IC50 [1]: 1.9 µM
- IC50 [2]: > 10 µM

SMILES: CCOC(=O)COc1cccc(Nc2ncc(F)c(Nc3ccc4c(c3)OCCO4)n2)c1 [R926482, N2-(3-Ethoxycarbonylmethyleneoxyphenyl)-N4-(3,4-ethylenedioxyphenyl)-5-fluoro-2,4-pyrimidinediamine]
- IC50 [1]: 1.04 µM
- IC50 [2]: > 10 µM

SMILES: O=C(COc1cccc(Nc2ncc(F)c(Nc3ccc4c(c3)OCCO4)n2)c1)N1CCOCC1 [R926484, N4-(3,4-Ethylenedioxyphenyl)-5-fluoro-N2-[3-(N-morpholino)carbonylmethyleneoxyphenyl]-2,4-pyrimidinediamine]
- IC50 [1]: 1.52 µM
- IC50 [2]: > 10 µM

SMILES: CC(C)Oc1cccc(Nc2nc(Nc3ccc4oc(C(=O)N5CCOCC5)cc4c3)ncc2F)c1 [R926489, 5-Fluoro-N4-(3-isopropoxyphenyl)-N2-[2-(N-morpholino)carbonylbenzofuran-5-yl]-2,4-pyrimidinediamine]
- IC50 [1]: 1.41 µM
- IC50 [2]: > 10 µM

SMILES: Fc1cnc(Nc2ccc3oc(CN4CCOCC4)cc3c2)nc1Nc1ccc2c(c1)OCCO2 [R926490, N4-(3,4-Ethylenedioxyphenyl)-5-fluoro-N2-[2-(N-morpholinomethylene)benzofuran-5-yl]-2,4-pyrimidinediamine]
- IC50 [1]: 1.57 µM
- IC50 [2]: > 10 µM

SMILES: O=C(COc1cccc(Nc2ncc(F)c(Nc3ccc4c(c3)OCCO4)n2)c1)N1CCNCC1 [R926503, N4-(3,4-Ethylenedioxyphenyl)-5-fluoro-N2-[3-(N-piperazino)carbonylmethyleneoxyphenyl]-2,4-pyrimidinediamine]
- IC50 [1]: 0.452 µM
- IC50 [2]: > 10 µM

SMILES: O=C(COc1cccc(Nc2ncc(F)c(Nc3cccc(O)c3)n2)c1)NCCO [R926506, 5-Fluoro-N4-(3-hydroxyphenyl)-N2-[3-(N-2-hydroxyethylamino)carbonylmethyleneoxyphenyl]-2,4-pyrimidinediamine]
- IC50 [1]: 0.343 µM
- IC50 [2]: > 10 µM

SMILES: CCOC(=O)c1cnc(N[C@@H](Cc2ccccc2)C(=O)OCC)nc1N[C@@H](Cc1ccccc1)C(=O)OCC [R926526, 2,4-Bis[N-(L)-phenylalaninylethyl ester]-5-ethoxycarbonylpyrimidine]
- IC50 [1]: > 10 µM
- IC50 [2]: > 10 µM

SMILES: CCOC(=O)c1cnc(N[C@H](C(=O)OCC)C(C)C)nc1N[C@H](C(=O)OCC)C(C)C [R926527, 2,4-Bis[N-(L)-valinylethyl ester]-5-ethoxycarbonylpyrimidine]
- IC50 [1]: > 10 µM
- IC50 [2]: > 10 µM

SMILES: CCOC(=O)c1cnc(Nc2cccc(O)c2)nc1N[C@@H](Cc1ccccc1)C(=O)OCC [R926528, 5-Ethoxycarbonyl-N2-(3-hydroxyphenyl)-4-[N-(L)-phenylalanineethyl ester]-2-pyrimidineamine]
- IC50 [1]: 8.75 µM
- IC50 [2]: > 10 µM

SMILES: O=C(O)c1cnc(Nc2cccc(O)c2)nc1NC(C(=O)O)c1ccccc1 (stereo not drawn) [R926535, 5-Carboxy-N2-(3-hydroxyphenyl)-N4-[N-(L)-phenylglycine)-2-pyrimidineamine]
- IC50 [1]: > 10 µM
- IC50 [2]: > 10 µM

SMILES: CCOC(=O)COc1ccc(Nc2nc(Cl)cc(NCC(=O)OC)n2)cc1 [R926555, 6-Chloro-N2-(4-ethoxycarbonylmethyleneoxyphenyl)-N4-(methoxycarbonylmethyl)-2,4-pyrimidinediamine]
- IC50 [1]: > 10 µM
- IC50 [2]: > 10 µM

SMILES: COC(=O)c1cnc(Nc2ccc(OCC(=O)N3CCCC3)cc2)nc1Nc1ccc(OCC(=O)N2CCCC2)cc1 [R926559, 5-Methoxycarbonyl-N2,N4-bis[4-(N-pyrrolidino)carbonylmethyleneoxyphenyl)-2,4-pyrimidinediamine]
- IC50 [1]: 7.7 µM
- IC50 [2]: > 10 µM

SMILES: O=C(O)COc1ccc(Nc2ncc(F)c(Nc3ccc(OCC(=O)O)cc3)n2)cc1 [R926560, N2,N4-Bis(4-carboxymethyleneoxy)phenyl-5-fluoro-2,4-pyrimidinediamine]
- IC50 [1]: > 10 µM
- IC50 [2]: > 10 µM

SMILES: CCOC(=O)c1cnc(Nc2ccc(OCC(=O)N3CCCC3)cc2)nc1Nc1ccc(OCC(=O)N2CCCC2)cc1 [R926562, N2,N4-Bis[4-(N-pyrrolidino)carbonylmethyleneoxyphenyl]-5-ethoxycarbonyl-2,4-pyrimidinediamine]
- IC50 [1]: > 10 µM
- IC50 [2]: > 10 µM

SMILES: O=C(COc1ccc(Nc2ncc(F)c(Nc3ccc(OCC(=O)N4CCCC4)cc3)n2)cc1)N1CCCC1 [R926563, N2,N4-Bis(4-N-pyrrolidinocarbonylmethyleneoxyphenyl)-5-fluoro-2,4-pyrimidinediamine]
- IC50 [1]: > 10 µM
- IC50 [2]: > 10 µM

SMILES: O=C(O)COc1ccc(Nc2ncc(F)c(Nc3cccc(O)c3)n2)cc1 [R926564, N2-(4-Carboxymethyleneoxyphenyl)-5-Fluoro-N4-(3-hydroxyphenyl)-2,4-pyrimidinediamine]
- IC50 [1]: 3.75 µM
- IC50 [2]: > 10 µM

SMILES: CCOC(=O)COc1ccc(Nc2nc(Nc3ccc(OCC(=O)OCC)cc3)c([N+](=O)[O-])c(C(=O)OCC)n2)cc1 [R926566, N2,N4-Bis(4-ethoxycarbonylmethylenedioxyphenyl)-6-ethoxycarbonyl-5-nitro-2,4-pyrimidinediamine]
- IC50 [1]: 2.73 µM
- IC50 [2]: > 10 µM

SMILES: CCOC(=O)COc1ccc(Nc2nc(Nc3ccc(OCC(=O)OCC)cc3)c(N)c(C(=O)OCC)n2)cc1 [R926567, 5-Amino-N2,N4-bis(4-ethoxycarbonylmethyleneoxyphenyl)-6-ethoxycarbonyl-2,4-pyrimidinediamine]
- IC50 [1]: 9.3 µM
- IC50 [2]: > 10 µM

SMILES: CCOC(=O)COc1ccc(Nc2nc(Cl)c(Cl)c(Nc3ccc(OCC(=O)OCC)cc3)n2)cc1 [R926569, N2,N4-Bis(4-ethoxycarbonylmethyleneoxyphenyl)-5,6-dichloro-2,4-pyrimidinediamine]
- IC50 [1]: 0.61 µM
- IC50 [2]: 3.07 µM

SMILES: CCOC(=O)COc1ccc(Nc2nc(Nc3ccc(OCC(=O)OCC)cc3)c(NC(=O)Nc3ccccc3)c(C(=O)OCC)n2)cc1 [R926571, N2,N4-Bis(4-ethoxycarbonylmethyleneoxyphenyl)-6-ethoxycarbonyl-5-(phenylaminocarbonylamino)-2,4-pyrimidinediamine]
- IC50 [1]: > 10 µM
- IC50 [2]: > 10 µM

SMILES: COC(=O)COc1ccc(Nc2ncc(F)c(Nc3ccc(OCC(=O)OC(C)(C)C)cc3)n2)cc1 [R926572]
- IC50 [1]: 1.8 µM
- IC50 [2]: 6.08 µM
